Values of other authors in publication PMC12163019 (Frontiers in Pharmacology, 2025).

Design: method as in Danto et al., 2019a
Details: modified-release formulation; ref Danto et al., 2019a

half-life: 38.8 ± 21.1 h
Compound: CC[C@@H]1[C@H](F)C(=O)N[C@@H]1COc1nccc2cc(C(N)=O)c(OC)cc12 [zimlovisertib]
